The results in this text go back to the NIST ThermoML archive (doi:10.1016/j.jct.2005.09.005).

The conditions of series [1]: Crystal; Adiabatic calorimetry.
The nature of series [2]: Molar enthalpy of transition or fusion. As to conditions: Crystal; Adiabatic calorimetry.

Numbers after ± are expanded uncertainties.

With `[2H]O[2H]` [water-d2], the Normal melting temperature in series [1] was found to be 3.68 ± 0.05 °C. In addition, the “Molar enthalpy of transition or fusion” value in series [2] is 1.47 ± 0.0225 kcal/mol.
